Data published in paper PMC5218480 (PLoS ONE, 2017).

Tested on: MV-4-11 cells
Assay: Gene expression microarray analysis (Affymetrix PrimeView) and GSEA
Type: cell-based, human
Parameters: RFU PODN (11730768_x_at) / Fold change /veh PODN (11730768_x_at) / RFU LINC00158 (11744669_a_at) / Fold change /veh LINC00158 (11744669_a_at) / RFU DUSP10 (11751237_a_at) / Fold change /veh DUSP10 (11751237_a_at) / RFU ID3 (11757404_x_at) / Fold change /veh ID3 (11757404_x_at) / RFU PLEKHG5 (11737974_s_at) / Fold change /veh PLEKHG5 (11737974_s_at) / RFU LRRC4B (11730491_at) / Fold change /veh LRRC4B (11730491_at) / RFU GIMAP4 (11747438_a_at) / Fold change /veh GIMAP4 (11747438_a_at) / RFU KRT8 (11758183_x_at) / Fold change /veh KRT8 (11758183_x_at) / RFU CNN1 (11734310_a_at) / Fold change /veh CNN1 (11734310_a_at) / RFU VPS37D (11726825_at) / Fold change /veh VPS37D (11726825_at) / RFU C10orf10 (11716522_x_at) / Fold change /veh C10orf10 (11716522_x_at) / RFU KIR2DL2 /// KIR2DL4 /// KIR2DL5A /// KIR2DL5B /// KIR2DS1 /// KIR2DS2 /// KIR2DS3 /// KIR2DS4 /// KIR3DL3 /// KIR3DL3 /// KIR3DS1 (11738374_at) / Fold change /veh KIR2DL2 /// KIR2DL4 /// KIR2DL5A /// KIR2DL5B /// KIR2DS1 /// KIR2DS2 /// KIR2DS3 /// KIR2DS4 /// KIR3DL3 /// KIR3DL3 /// KIR3DS1 (11738374_at) / RFU C1QL1 (11718748_at) / Fold change /veh C1QL1 (11718748_at) / RFU TMPRSS4 (11747572_a_at) / Fold change /veh TMPRSS4 (11747572_a_at) / RFU HAMP (11756126_x_at) / Fold change /veh HAMP (11756126_x_at) / RFU RNFT2 (11725882_a_at) / Fold change /veh RNFT2 (11725882_a_at) / RFU NR4A2 (11747474_a_at) / Fold change /veh NR4A2 (11747474_a_at) / RFU ABCC12 (11746883_a_at) / Fold change /veh ABCC12 (11746883_a_at) / RFU TMEM136 (11760407_x_at) / Fold change /veh TMEM136 (11760407_x_at) / RFU CLDN22 /// WWC2 (11732394_at) / Fold change /veh CLDN22 /// WWC2 (11732394_at) / RFU HLA-DPB1 (11760878_x_at) / Fold change /veh HLA-DPB1 (11760878_x_at) / RFU SPINT1 (11716480_a_at) / Fold change /veh SPINT1 (11716480_a_at) / RFU GAP43 (11754022_s_at) / Fold change /veh GAP43 (11754022_s_at) / RFU A4GNT (11735810_at) / Fold change /veh A4GNT (11735810_at) / RFU PRB3 (11715151_x_at) / Fold change /veh PRB3 (11715151_x_at) / RFU TUBB4B (11761932_at) / Fold change /veh TUBB4B (11761932_at) / RFU CAPN14 (11732068_a_at) / Fold change /veh CAPN14 (11732068_a_at) / RFU TMCC2 (11721928_a_at) / Fold change /veh TMCC2 (11721928_a_at) / RFU IRGQ (11745062_a_at) / Fold change /veh IRGQ (11745062_a_at) / RFU FAM174B (11720279_a_at) / Fold change /veh FAM174B (11720279_a_at) / RFU TMPRSS4 (11748680_a_at) / Fold change /veh TMPRSS4 (11748680_a_at) / RFU FAM212B (11763350_a_at) / Fold change /veh FAM212B (11763350_a_at) / RFU PLEKHG5 (11743358_a_at) / Fold change /veh PLEKHG5 (11743358_a_at) / RFU ZSCAN30 (11745921_a_at) / Fold change /veh ZSCAN30 (11745921_a_at) / RFU CMKLR1 (11741424_a_at) / Fold change /veh CMKLR1 (11741424_a_at) / RFU LOC101060620 /// MAPK8IP1 (11723275_at) / Fold change /veh LOC101060620 /// MAPK8IP1 (11723275_at) / RFU SPTSSB (11747773_x_at) / Fold change /veh SPTSSB (11747773_x_at) / RFU PRSS12 (11739890_at) / Fold change /veh PRSS12 (11739890_at) / RFU BIN1 (11741810_x_at) / Fold change /veh BIN1 (11741810_x_at) / RFU WNT11 (11732464_a_at) / Fold change /veh WNT11 (11732464_a_at) / RFU C10orf10 (11716521_a_at) / Fold change /veh C10orf10 (11716521_a_at) / RFU C5orf56 (11738089_at) / Fold change /veh C5orf56 (11738089_at) / RFU CYB561 (11721691_x_at) / Fold change /veh CYB561 (11721691_x_at) / RFU ANKRD19P (11752326_a_at) / Fold change /veh ANKRD19P (11752326_a_at) / RFU OR2T12 /// OR2T33 /// OR2T8 (11738714_s_at) / Fold change /veh OR2T12 /// OR2T33 /// OR2T8 (11738714_s_at) / RFU VCAN (11748164_a_at) / Fold change /veh VCAN (11748164_a_at) / RFU JSRP1 (11732532_at) / Fold change /veh JSRP1 (11732532_at) / RFU KRTAP10-11 (11738290_x_at) / Fold change /veh KRTAP10-11 (11738290_x_at) / RFU MYO3A (11730013_a_at) / Fold change /veh MYO3A (11730013_a_at) / RFU EBF3 (11725865_a_at) / Fold change /veh EBF3 (11725865_a_at) / RFU CAMK2N1 (11719241_x_at) / Fold change /veh CAMK2N1 (11719241_x_at) / RFU C5orf56 (11738088_a_at) / Fold change /veh C5orf56 (11738088_a_at) / RFU OLFML3 (11715873_a_at) / Fold change /veh OLFML3 (11715873_a_at) / RFU LOC100653217 /// NTM (11731650_a_at) / Fold change /veh LOC100653217 /// NTM (11731650_a_at) / RFU MAPK11 (11762145_a_at) / Fold change /veh MAPK11 (11762145_a_at) / RFU FIZ1 (11724087_x_at) / Fold change /veh FIZ1 (11724087_x_at) / RFU OASL (11726364_x_at) / Fold change /veh OASL (11726364_x_at) / RFU SOX15 (11748057_x_at) / Fold change /veh SOX15 (11748057_x_at) / RFU CD79A (11719716_a_at) / Fold change /veh CD79A (11719716_a_at) / RFU HIST1H1D (11736915_at) / Fold change /veh HIST1H1D (11736915_at) / RFU CASKIN2 (11723855_a_at) / Fold change /veh CASKIN2 (11723855_a_at) / RFU LOC730098 (11760151_x_at) / Fold change /veh LOC730098 (11760151_x_at) / RFU OR4N2 (11742367_at) / Fold change /veh OR4N2 (11742367_at) / RFU PRRT2 (11749266_a_at) / Fold change /veh PRRT2 (11749266_a_at) / RFU SNX32 (11753110_a_at) / Fold change /veh SNX32 (11753110_a_at) / RFU CDHR5 (11726645_a_at) / Fold change /veh CDHR5 (11726645_a_at) / RFU RCAN1 (11760418_a_at) / Fold change /veh RCAN1 (11760418_a_at) / RFU FAM167A (11723789_a_at) / Fold change /veh FAM167A (11723789_a_at) / RFU FAM26E (11764081_at) / Fold change /veh FAM26E (11764081_at) / RFU ISYNA1 (11749810_s_at) / Fold change /veh ISYNA1 (11749810_s_at) / RFU ACY1 (11761880_at) / Fold change /veh ACY1 (11761880_at) / RFU 11764098_at / Fold change /veh 11764098_at / RFU SAMD14 (11745864_x_at) / Fold change /veh SAMD14 (11745864_x_at) / RFU NPB (11741838_a_at) / Fold change /veh NPB (11741838_a_at) / RFU TMPRSS6 (11731388_a_at) / Fold change /veh TMPRSS6 (11731388_a_at) / RFU KRTAP10-2 (11738614_at) / Fold change /veh KRTAP10-2 (11738614_at) / RFU ARHGAP8 /// PRR5-ARHGAP8 (11727945_x_at) / Fold change /veh ARHGAP8 /// PRR5-ARHGAP8 (11727945_x_at) / RFU KRTAP5-7 /// NADSYN1 (11734609_at) / Fold change /veh KRTAP5-7 /// NADSYN1 (11734609_at) / RFU RASL12 (11751679_a_at) / Fold change /veh RASL12 (11751679_a_at) / RFU CDKN2B (11736163_a_at) / Fold change /veh CDKN2B (11736163_a_at) / RFU PRF1 (11729649_at) / Fold change /veh PRF1 (11729649_at) / RFU, ZNF638 /// ZNF638-IT1 / Fold change vs veh, ZNF638 /// ZNF638-IT1 / RFU, PANK3 / Fold change vs veh, PANK3 / RFU, SH3YL1 / Fold change vs veh, SH3YL1 / RFU, ZEB2 / Fold change vs veh, ZEB2 / RFU, NRIP1 / Fold change vs veh, NRIP1 / RFU, PTTG1IP / Fold change vs veh, PTTG1IP / RFU, CAPN2 / Fold change vs veh, CAPN2 / RFU, MED14 / Fold change vs veh, MED14 / RFU, SNORA58 / Fold change vs veh, SNORA58 / RFU, C1orf63 / Fold change vs veh, C1orf63 / RFU, LRRFIP1 / Fold change vs veh, LRRFIP1 / RFU, NDUFAF7 / Fold change vs veh, NDUFAF7 / RFU, SLC12A2 / Fold change vs veh, SLC12A2 / RFU, IBTK / Fold change vs veh, IBTK / RFU, ESF1 / Fold change vs veh, ESF1 / Fold change vs veh, TMEM50B / RFU, TAOK1 / Fold change vs veh, TAOK1 / RFU, ACBD3 / Fold change vs veh, ACBD3 / RFU, TMA16 / Fold change vs veh, TMA16 / RFU, RWDD3 / Fold change vs veh, RWDD3 / RFU, BCAT1 / Fold change vs veh, BCAT1 / RFU, EDEM3 / Fold change vs veh, EDEM3 / RFU, TMEM33 / Fold change vs veh, TMEM33 / RFU, WDR75 / Fold change vs veh, WDR75 / RFU, AHCTF1 / Fold change vs veh, AHCTF1 / RFU, TFRC / Fold change vs veh, TFRC / RFU, ZDHHC17 / Fold change vs veh, ZDHHC17 / RFU, NOM1 / Fold change vs veh, NOM1 / RFU, ARL8B / Fold change vs veh, ARL8B / RFU, ZBTB11 / Fold change vs veh, ZBTB11 / RFU, TAMM41 / Fold change vs veh, TAMM41 / RFU, KIAA1704 /// LOC100996395 / Fold change vs veh, KIAA1704 /// LOC100996395 / RFU, ING1 / Fold change vs veh, ING1 / RFU, TRMT61B / Fold change vs veh, TRMT61B / RFU, FUBP3 / Fold change vs veh, FUBP3 / RFU, TP53 / Fold change vs veh, TP53 / RFU, TNKS2 / Fold change vs veh, TNKS2 / RFU, ZFP14 / Fold change vs veh, ZFP14 / RFU, ACTR2 / Fold change vs veh, ACTR2 / RFU, PPP3R1 / Fold change vs veh, PPP3R1 / RFU, PIK3R1 / Fold change vs veh, PIK3R1 / RFU, HNRNPA1 / Fold change vs veh, HNRNPA1 / RFU, RNF170 / Fold change vs veh, RNF170 / RFU, ZNF28 / Fold change vs veh, ZNF28 / RFU, RNGTT / Fold change vs veh, RNGTT / RFU, OGT / Fold change vs veh, OGT / RFU, BRD1 / Fold change vs veh, BRD1 / RFU, MARS / Fold change vs veh, MARS / RFU, ZNF655 / Fold change vs veh, ZNF655 / RFU, FAHD1 / Fold change vs veh, FAHD1 / RFU, BDP1 / Fold change vs veh, BDP1 / RFU, LRRCC1 / Fold change vs veh, LRRCC1 / RFU, ARID1A / Fold change vs veh, ARID1A / RFU, ZNF146 / Fold change vs veh, ZNF146 / RFU, ZNF330 / Fold change vs veh, ZNF330 / RFU, GPN3 / Fold change vs veh, GPN3 / RFU, C9orf123 / Fold change vs veh, C9orf123 / RFU, N4BP2L2 / Fold change vs veh, N4BP2L2 / RFU, ARFIP1 / Fold change vs veh, ARFIP1 / RFU, FAM179B / Fold change vs veh, FAM179B / RFU, BCL10 / Fold change vs veh, BCL10 / RFU, UHRF1BP1L / Fold change vs veh, UHRF1BP1L / RFU, BET1 / Fold change vs veh, BET1 / RFU, CNOT2 / Fold change vs veh, CNOT2 / RFU, ZNF268 / Fold change vs veh, ZNF268 / Fold change vs veh, ZNF507 / RFU, DGCR2 / Fold change vs veh, DGCR2 / RFU, WDSUB1 / Fold change vs veh, WDSUB1 / Fold change vs veh, HSP90B1 /// MIR3652 / RFU, ADSS / Fold change vs veh, ADSS / RFU, GK / Fold change vs veh, GK / RFU, ZNF148 / Fold change vs veh, ZNF148 / RFU, TAF9 / Fold change vs veh, TAF9 / RFU, SLC1A5 / Fold change vs veh, SLC1A5 / RFU, SLMO2 / Fold change vs veh, SLMO2 / RFU, ABCC4 / Fold change vs veh, ABCC4 / RFU, LOC101060439 /// RAP1B / Fold change vs veh, LOC101060439 /// RAP1B / RFU, RFX7 / Fold change vs veh, RFX7 / RFU, GTPBP10 / Fold change vs veh, GTPBP10 / RFU, CNEP1R1 / Fold change vs veh, CNEP1R1 / RFU, BIVM-ERCC5 /// ERCC5 / Fold change vs veh, BIVM-ERCC5 /// ERCC5 / RFU, ILF3 / Fold change vs veh, ILF3 / RFU 11762660_at / Fold change /veh 11762660_at / RFU VCAN (11757783_s_at) / Fold change /veh VCAN (11757783_s_at) / RFU DDX43 (11728927_at) / Fold change /veh DDX43 (11728927_at) / RFU KRT8 (11758188_x_at) / Fold change /veh KRT8 (11758188_x_at) / RFU NKD1 (11759106_at) / Fold change /veh NKD1 (11759106_at) / RFU SRD5A1 (11742802_a_at) / Fold change /veh SRD5A1 (11742802_a_at) / RFU TPSAB1 /// TPSB2 (11721975_s_at) / Fold change /veh TPSAB1 /// TPSB2 (11721975_s_at) / RFU GSTM3 (11746129_a_at) / Fold change /veh GSTM3 (11746129_a_at) / RFU IL23R (11737362_x_at) / Fold change /veh IL23R (11737362_x_at) / RFU TMEM51 (11727254_a_at) / Fold change /veh TMEM51 (11727254_a_at) / RFU PIWIL2 (11732686_x_at) / Fold change /veh PIWIL2 (11732686_x_at) / RFU ORM1 (11744905_x_at) / Fold change /veh ORM1 (11744905_x_at) / RFU CCDC152 (11743942_at) / Fold change /veh CCDC152 (11743942_at) / RFU ECM1 (11717891_a_at) / Fold change /veh ECM1 (11717891_a_at) / RFU IL23R (11748794_a_at) / Fold change /veh IL23R (11748794_a_at) / RFU TNFAIP8L3 (11732012_x_at) / Fold change /veh TNFAIP8L3 (11732012_x_at) / RFU MBOAT4 (11741988_at) / Fold change /veh MBOAT4 (11741988_at) / RFU 11764193_at / Fold change /veh 11764193_at / RFU TMEM53 (11763286_at) / Fold change /veh TMEM53 (11763286_at) / RFU MAGEB2 (11727129_at) / Fold change /veh MAGEB2 (11727129_at) / RFU TMEM200A (11744735_a_at) / Fold change /veh TMEM200A (11744735_a_at) / RFU CCDC152 (11751479_a_at) / Fold change /veh CCDC152 (11751479_a_at) / RFU FAM211A (11726209_a_at) / Fold change /veh FAM211A (11726209_a_at) / RFU RGS16 (11746705_a_at) / Fold change /veh RGS16 (11746705_a_at) / RFU VCAN (11755009_s_at) / Fold change /veh VCAN (11755009_s_at) / RFU RHOB (11743442_s_at) / Fold change /veh RHOB (11743442_s_at) / RFU RGS16 (11720943_a_at) / Fold change /veh RGS16 (11720943_a_at) / RFU RGS16 (11720944_at) / Fold change /veh RGS16 (11720944_at) / RFU, VPS4B / Fold change vs veh, VPS4B / RFU, CREB1 / Fold change vs veh, CREB1 / RFU, DNAJC13 / Fold change vs veh, DNAJC13 / RFU, GNAQ / Fold change vs veh, GNAQ / RFU, CDK5R1 / Fold change vs veh, CDK5R1 / RFU, ZRANB3 / Fold change vs veh, ZRANB3 / RFU, CUL4A / Fold change vs veh, CUL4A / RFU, CCNY / Fold change vs veh, CCNY / RFU, UFL1 / Fold change vs veh, UFL1 / RFU, COG3 / Fold change vs veh, COG3 / RFU, DIAPH2 / Fold change vs veh, DIAPH2 / RFU, SKA2 / Fold change vs veh, SKA2 / RFU, AFF3 / Fold change vs veh, AFF3 / RFU, LMF1 / Fold change vs veh, LMF1 / RFU, IPO11 / Fold change vs veh, IPO11 / RFU, DFFB / Fold change vs veh, DFFB / RFU, FOXP1 / Fold change vs veh, FOXP1 / RFU, CARD8 / Fold change vs veh, CARD8 / RFU, STRN3 / Fold change vs veh, STRN3 / RFU, ADK / Fold change vs veh, ADK / RFU, RASSF2 / Fold change vs veh, RASSF2 / RFU, WIPF1 / Fold change vs veh, WIPF1 / RFU, LARP1B / Fold change vs veh, LARP1B / RFU, RASA1 / Fold change vs veh, RASA1 / RFU, RB1 / Fold change vs veh, RB1 / RFU, PPFIA1 / Fold change vs veh, PPFIA1 / RFU, MAT2A / Fold change vs veh, MAT2A / RFU, CCT5 / Fold change vs veh, CCT5 / RFU, WDR92 / Fold change vs veh, WDR92 / RFU, CUX1 / Fold change vs veh, CUX1 / RFU, TTC7A / Fold change vs veh, TTC7A / RFU, TMEM135 / Fold change vs veh, TMEM135 / RFU, DEPTOR / Fold change vs veh, DEPTOR / RFU, CPM / Fold change vs veh, CPM / RFU, DNAJB6 / Fold change vs veh, DNAJB6 / RFU, CACNA2D3 / Fold change vs veh, CACNA2D3 / RFU, DTX4 / Fold change vs veh, DTX4 / RFU, TFCP2 / Fold change vs veh, TFCP2 / RFU, GMCL1 /// GMCL1P1 / Fold change vs veh, GMCL1 /// GMCL1P1 / RFU, AEBP2 / Fold change vs veh, AEBP2 / RFU, SNHG1 /// SNORD22 /// SNORD25 /// SNORD26 /// SNORD27 /// SNORD28 /// SNORD29 /// SNORD31 / Fold change vs veh, SNHG1 /// SNORD22 /// SNORD25 /// SNORD26 /// SNORD27 /// SNORD28 /// SNORD29 /// SNORD31 / Fold change (Aza/veh), C12orf56 (ProbeSet 11735607_a_at) / Fold change (ACY-1035/veh), C12orf56 (ProbeSet 11735607_a_at) / Fold change (Aza/veh), FGFR1OP (ProbeSet 11751329_s_at) / Fold change (ACY-1035/veh), FGFR1OP (ProbeSet 11751329_s_at) / Fold change (Aza/veh), VPS36 (ProbeSet 11739960_a_at) / Fold change (ACY-1035/veh), VPS36 (ProbeSet 11739960_a_at) / RFU SYPL1 (11715823_x_at) / Fold change /veh SYPL1 (11715823_x_at) / RFU IGFBP7 (11715501_s_at) / Fold change /veh IGFBP7 (11715501_s_at) / RFU REEP3 (11722064_at) / Fold change /veh REEP3 (11722064_at) / RFU IGLL1 (11728026_x_at) / Fold change /veh IGLL1 (11728026_x_at): dose or concentration left out as unconfirmed
Conditions: MV-4-11 cells, 48 hours

## Nc1ncn([C@@H]2O[C@H](CO)[C@@H](O)[C@H]2O)c(=O)n1 [azacitidine]
  RFU SOX15 (11748057_x_at): 12.99 RFU
